Source: patent US20140094462A1, “SONIC HEDGEHOG MODULATORS” (priority 2009, published 2014)

system: not given; assay: not given; settings: from C=CCCC(=O)N[C@@H]1c2ccccc2C[C@H]1OC(=O)[C@H](C)CC=C; rcm bond; DCM

Structure (SMILES) | ring closure, yield of all isomers
C[C@@H]1C/C=C/CCC(=O)N[C@@H]2c3ccccc3C[C@H]2OC1=O | 61.8%

same assay, conditions: from C=CCCC(=O)N[C@@H](C)COC(=O)[C@H](C)CC=C; rcm bond; toluene; 3 steps

Structure (SMILES) | ring closure, yield of all isomers
C[C@@H]1C/C=C/CCC(=O)N[C@@H](C)COC1=O | 35%

target: T1, ShhN protein (Homo sapiens, UniProt Q15465); assay: Surface Plasmon Resonance (SPR) protein binding assay on immobilized ShhN; settings: SPR, Biacore T100, ShhN immobilized on CM4 chip, 25° C., compound 0.78 μM-25 μM; read-out: KD
T1 construct: auto-cleavage of full length Shh into an active 20 kD N-terminal fragment (ShhN); purchased R&D Systems
T1 sequence (Q15465 24-197 limits assumed, species assumed): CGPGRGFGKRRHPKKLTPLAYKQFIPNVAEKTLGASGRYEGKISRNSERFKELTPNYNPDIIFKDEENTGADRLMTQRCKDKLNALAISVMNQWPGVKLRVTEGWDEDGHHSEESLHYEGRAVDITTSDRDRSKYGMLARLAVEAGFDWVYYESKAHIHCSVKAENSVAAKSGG
Description: Biacore™ T100 (GE Healthcare, Uppsala, Sweden) was used to perform the experiments described herein. Sensor surface preparation and interaction analyses experiments were performed at 25° C.
Control surfaces were prepared similarly without protein derivatization and were utilized as a reference surfaces for compound binding experiments.
Zero concentration blank buffer cycles were included as negative control samples.
Data analysis was carried out using Biacore T100 evaluation software v1.1.1. […] Solvent correction was then applied as described previously.

Kd | Structure (SMILES)
1 to 100 µM | CC(C)c1ccc(CNC(=O)C[C@@H]2C/C=C/CCC(=O)O[C@H](c3ccccc3)CNC2=O)cc1 [EJ]
> 100 µM | O=C(C[C@@H]1C/C=C/CCC(=O)O[C@H](c2ccccc2)CNC1=O)NCc1ccc(Cl)c(C(F)(F)F)c1 [EK]
> 100 µM | O=C(C[C@@H]1C/C=C/CCC(=O)O[C@H](c2ccccc2)CNC1=O)NCCc1ccc(Cl)cc1 [EL]
1 to 100 µM | O=C(C[C@@H]1C/C=C/CCC(=O)O[C@H](c2ccccc2)CNC1=O)Nc1ccc(Cl)cc1 [EM]
1 to 100 µM | O=C(C[C@@H]1C/C=C/CCC(=O)O[C@H](c2ccccc2)CNC1=O)NCc1ccccc1 [EN]
> 100 µM | O=C(C[C@@H]1C/C=C/CCC(=O)O[C@H](c2ccccc2)CNC1=O)NCc1cccc(Cl)c1 [EO]
> 100 µM | CN(Cc1ccc(Cl)cc1)C(=O)C[C@@H]1C/C=C/CCC(=O)O[C@H](c2ccccc2)CN(C)C1=O [EP]
1 to 100 µM | COc1ccc(CNC(=O)C[C@@H]2C/C=C/CCC(=O)O[C@H](c3ccccc3)CNC2=O)cc1 [EQ]
1 to 100 µM | CN1CCN(C(=O)C[C@@H]2C/C=C/CCC(=O)O[C@H](c3ccccc3)CNC2=O)CC1 [ET]
1 to 100 µM | O=C1CC/C=C/C[C@@H](CC(=O)N2CCN(c3ncccn3)CC2)C(=O)NC[C@@H](c2ccccc2)O1 [EU]
> 100 µM | O=C(C[C@@H]1C/C=C/CCC(=O)O[C@H](c2ccccc2)CN(Cc2ccccc2)C1=O)NCc1ccc(Cl)cc1 [EV]
> 100 µM | O=C(C[C@@H]1C/C=C/CCC(=O)O[C@H](c2ccccc2)CNC1=O)NC(c1ccccc1)c1ccccc1 [EW]
1 to 100 µM | N[C@@H]1C/C=C/CCC(=O)N[C@H](c2ccccc2)COC1=O [Example AC, (3R,11R,E)-11-amino-3-phenyl-1-oxa-4-azacyclododec-8-ene-5,12-dione]
1 to 100 µM | C[C@H]1[C@@H](c2ccccc2)OC(=O)CC[C@H](O)[C@@H](O)C[C@@H](CC(=O)NCc2ccc(Cl)cc2)C(=O)N1C [Example BB, N-(4-chlorobenzyl)-2-((2R,3S,6S,8S,9S)-8,9-dihydroxy-3,4-dimethyl-5,12-dioxo-2-phenyl-1-oxa-4-azacyclododecan-6-yl)acetamide]
1 to 100 µM | C[C@@H]1CCCCCC(=O)OC[C@@H]2CCCN2C1=O [Example BE, (9R,14aS)-9-methyldecahydro-1H-pyrrolo[2,1-c][1,4]oxaazacyclododecine-3,10-dione]
1 to 100 µM | O=C(C[C@@H]1C/C=C/CCC(=O)N[C@@H]2c3ccccc3C[C@@H]2OC1=O)NCc1ccc(Cl)cc1 [Example BJ, N-(4-chlorobenzyl)-2-((3S,10aR,15aS,E)-2,9-dioxo-2,3,4,7,8,9,10,10a,15,15a-decahydroindeno[2,1-b][1,4]oxaazacyclododecin-3-yl)acetamide]
> 100 µM | CN1C[C@@H](c2ccccc2)OC(=O)CC/C=C/C[C@@H](Cc2ccc(Cl)cc2)C1=O [Example BR, (2R,6S,E)-6-(4-chlorobenzyl)-4-methyl-2-phenyl-1-oxa-4-azacyclododec-8-ene-5,12-dione]
1 to 100 µM | C[C@@H]1C[C@H](O)[C@@H](O)CCC(=O)N[C@H](c2ccccc2)COC1=O [Example BU, (3R,8S,9S,11R)-8,9-dihydroxy-11-methyl-3-phenyl-1-oxa-4-azacyclododecane-5,12-dione]
0.1 to 1 µM | C[C@@H]1C/C=C/CCC(=O)N[C@@H]2c3ccccc3C[C@@H]2OC1=O [Example BV, (3R,10aR,15aS,E)-3-methyl-3,4,7,8,10,10a,15,15a-octahydroindeno[2,1-b][1,4]oxaazacyclododecine-2,9-dione]
0.1 to 1 µM | C[C@@H]1C/C=C/C[C@@H](CC(=O)NCc2ccc(Cl)cc2)C(=O)NC[C@@H](c2ccccc2)OC1=O [Example EA, N-(4-chlorobenzyl)-2-((2R,6S,11R,E)-11-methyl-5,12-dioxo-2-phenyl-1-oxa-4-azacyclododec-8-en-6-yl)acetamide]
1 to 100 µM | N[C@H]1C/C=C/C[C@@H](CC(=O)NCc2ccc(Cl)cc2)C(=O)NC[C@@H](c2ccccc2)OC1=O [Example EB, 2-((2R,6S,11S,E)-11-amino-5,12-dioxo-2-phenyl-1-oxa-4-azacyclododec-8-en-6-yl)-N-(4-chlorobenzyl)acetamide]

Kd | Structure (SMILES)
< 0.1 µM | O=C(C[C@@H]1C/C=C/C[C@H](O)C(=O)O[C@H](c2ccccc2)CNC1=O)NCc1ccc(Cl)cc1 [Example EC, N-(4-chlorobenzyl)-2-((2R,6S,11S,E)-11-hydroxy-5,12-dioxo-2-phenyl-1-oxa-4-azacyclododec-8-en-6-yl)acetamide]
> 100 µM | O=C(C[C@@H]1C/C=C/C[C@H](Cc2ccccc2)C(=O)N[C@H](c2ccccc2)COC1=O)NCc1ccc(Cl)cc1 [Example ED, 2-((3R,6R,11S,E)-6-benzyl-5,12-dioxo-3-phenyl-1-oxa-4-azacyclododec-8-en-11-yl)-N-(4-chlorobenzyl)acetamide]
> 100 µM | C[C@H]1C/C=C\C[C@@H](CC(=O)NCc2ccc(Cl)cc2)C(=O)OC[C@@H](c2ccccc2)NC1=O [Example EE, N-(4-chlorobenzyl)-2-((3R,6S,11S,Z)-6-methyl-5,12-dioxo-3-phenyl-1-oxa-4-azacyclododec-8-en-11-yl)acetamide]
1 to 100 µM | CN1C[C@@H](c2ccccc2)OC(=O)CC/C=C/C[C@@H](CC(=O)NCC2CCOCC2)C1=O [Example EX, 2-((2R,6S,E)-4-methyl-5,12-dioxo-2-phenyl-1-oxa-4-azacyclododec-8-en-6-yl)-N-((tetrahydro-2H-pyran-4-yl)methyl)acetamide]
> 100 µM | COc1ccccc1[C@@H]1COC(=O)[C@H](CC(=O)NCc2ccc(Cl)cc2)C/C=C/CCC(=O)N1 [Example EY, N-(4-chlorobenzyl)-2-((3R,11S,E)-3-(2-methoxyphenyl)-5,12-dioxo-1-oxa-4-azacyclododec-8-en-11-yl)acetamide]
> 100 µM | C[C@H]1[C@@H](c2ccccc2)OC(=O)CC/C=C\C[C@@H](CC(=O)NCc2ccc(Cl)cc2)C(=O)N1C [Example EZ, N-(4-chlorobenzyl)-2-((2R,3S,6S,Z)-3,4-dimethyl-5,12-dioxo-2-phenyl-1-oxa-4-azacyclododec-8-en-6-yl)acetamide]
> 100 µM | C[C@H]1[C@@H](c2ccccc2)OC(=O)CC/C=C/C[C@@H](CC(=O)NCCCC(F)(F)F)C(=O)N1C [Example FA, 2-((2R,3S,6S,E)-3,4-dimethyl-5,12-dioxo-2-phenyl-1-oxa-4-azacyclododec-8-en-6-yl)-N-(4,4,4-trifluorobutyl)acetamide]
1 to 100 µM | O=C(C[C@@H]1CCCCCC(=O)OC[C@@H]2CCCN2C1=O)NCc1ccc(Cl)cc1 [Example FB, N-(4-chlorobenzyl)-2-((9S,14aS)-3,10-dioxododecahydro-1H-pyrrolo[2,1-c][1,4]oxaazacyclododecin-9-yl)acetamide]
> 100 µM | C[C@@H]1NC(=O)[C@H](CC(=O)NCc2ccc(Cl)cc2)C/C=C/CCC(=O)O[C@@H]1c1ccccc1 [FP, N-(4-chlorobenzyl)-2-((2R,3S,6S,E)-3-methyl-5,12-dioxo-2-phenyl-1-oxa-4-azacyclododec-8-en-6-yl)acetamide]
0.1 to 1 µM | CC(C)[C@@H]1COC(=O)[C@H](CC(=O)NCc2ccc(Cl)cc2)C/C=C/CCC(=O)N1 [FQ, N-(4-chlorobenzyl)-2-((3R,11S,E)-3-isopropyl-5,12-dioxo-1-oxa-4-azacyclododec-8-en-11-yl)acetamide]
1 to 100 µM | CCCC[C@@H]1COC(=O)[C@H](CC(=O)NCc2ccc(Cl)cc2)C/C=C/CCC(=O)N1 [FR, 2-((3R,11S,E)-3-butyl-5,12-dioxo-1-oxa-4-azacyclododec-8-en-11-yl)-N-(4-chlorobenzyl)acetamide]
1 to 100 µM | O=C(C[C@@H]1C/C=C/CCC(=O)N[C@H](Cc2ccccc2)COC1=O)NCc1ccc(Cl)cc1 [FS, 2-((3R,11S,E)-3-benzyl-5,12-dioxo-1-oxa-4-azacyclododec-8-en-11-yl)-N-(4-chlorobenzyl)acetamide]
1 to 100 µM | O=C(C[C@@H]1C/C=C/CCC(=O)N2CCC[C@H]2COC1=O)NCc1ccc(Cl)cc1 [FT, N-(4-chlorobenzyl)-2-((4S,14aS,E)-3,10-dioxo-3,4,5,8,9,10,12,13,14,14a-decahydro-1H-pyrrolo[2,1-c][1,4]oxaazacyclododecin-4-yl)acetamide]
> 100 µM | O=C(C[C@@H]1C/C=C/CCC(=O)N[C@H](C2CCCCC2)COC1=O)NCc1ccc(Cl)cc1 [FU, N-(4-chlorobenzyl)-2-((3R,11S,E)-3-cyclohexyl-5,12-dioxo-1-oxa-4-azacyclododec-8-en-11-yl)acetamide]
< 0.1 µM | CC(C)(C)OC(=O)C[C@@H]1C/C=C/CCC(=O)N[C@H](c2ccc(Cl)cc2)COC1=O [FV]
< 0.1 µM | CC(C)(C)OC(=O)C[C@@H]1C/C=C/CCC(=O)N[C@@H]2c3ccccc3C[C@@H]2OC1=O [FW, tert-butyl 2-((3S,10aR,15aS,E)-2,9-dioxo-2,3,4,7,8,9,10,10a,15,15a-decahydroindeno[2,1-b][1,4]oxaazacyclododecin-3-yl)acetate]
< 0.1 µM | CC(C)(C)OC(=O)C[C@@H]1C/C=C/CCC(=O)N[C@H](c2ccc(F)cc2)COC1=O [FX]
< 0.1 µM | COc1ccccc1[C@@H]1COC(=O)[C@H](CC(=O)OC(C)(C)C)C/C=C/CCC(=O)N1 [FY]
1 to 100 µM | O=C(C[C@@H]1C/C=C/CCC(=O)N[C@H](c2ccccc2)COC1=O)NCC1CCOCC1 [FZ, 2-((3R,11S,E)-5,12-dioxo-3-phenyl-1-oxa-4-azacyclododec-8-en-11-yl)-N-((tetrahydro-2H-pyran-4-yl)methyl)acetamide]
< 0.1 µM | O=C1CC/C=C/CCC(=O)OC[C@@H](c2ccccc2)N1 [F]
